Assay results from PubChem BioAssay AID1918955 (Molecular Pharmacology Branch, DTP, NCI, 2023).

Tested on: NCI/ADR-RES complex spheroid viability
Assay: Anticancer human tumor NCI/ADR-RES cell line growth inhibition;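 note: spheroids exposed to compounds for 7 days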;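 for viability, T/C: 100% = DMSO vehicle treated spheroids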
Details: for IC50: curve of first compound; for viability, T/C: stronger effect = lower value
Excerpt: Multicellular complex tumor spheroid response to LSD1 Inhibitor Iadademstat in combination with a variety of drugs and investigational agents in selected tumor cell lines
The current study was undertaken to assess response to LSD1 inhibitors in combination with standard-of-care drugs and investigational agents in solid tumor complex spheroid models as well as in the K-562 leukemia. Complex spheroids include a stromal component modeled by human endothelial cells (HUVEC) and fibroblasts modeled by human mesenchymal stem cells (MSCs). The concentration ranges selected for each drug and investigational agent were based upon clinically achievable concentrations if the clinical Cmax of the agent was known.
Compounds. The drugs and investigational agents used in this study are listed on Table 1. All of the agents used, including staurosporine (NSC755774) and gemcitabine (NSC613327), were obtained from the Developmental Therapeutics Program, NCI. FDA-approved anticancer drugs are available from the NCI at http://dtp.nci.nih.gov/branches/dscb/oncology_drugset_explanation.html. Drugs and investigational agents were >95% pure by proton nuclear magnetic resonance (NMR) and liquid chromatography/mass spectrometry (LC/MS). Stock solutions were prepared at 400x in DMSO, stored at -70 degrees C, and diluted in fresh medium prior to their use. The final concentration of DMSO in cell culture wells never exceeded 0.25% (v/v). The FDA-approved anticancer drug set is available from the Developmental Therapeutics Program at https://dtp.cancer.gov/organization/dscb/obtaining/available_plates.htm. All drugs and investigational agents were tested over a range starting from a high concentration at or near the clinical Cmax and decreasing in half-log increments. If the clinical Cmax for an agent had not been determined, the highest concentration tested was 10 microM.
Cell Lines. The patient-derived cancer cell (PDC) lines: 292921-168-R-J2-PDC, K24384-001-R-PDC, and 521955-158-R2-J5-PDC pancreatic carcinomas, 556581-035-R-J1 ovarian carcinoma, 324938-238-R-J1-PDC, 855422-203-R-J1-PDC and 883617-216-R-J1-PDC urothelial bladder carcinomas, 743489-274-T-PDC renal cell carcinoma, 138582-R-J1 Merkel cell tumor, K60290-347-R-J1 and K57222-313-R-J1-PDC glioblastomas, 653999-131-R-J2-PDC, LG0703-F948-PDC, and 349418-098-R-PDC non-small cell lung carcinomas, 885512-296-R-J2-PDC, 171881-019-R-J1-PDC breast carcinomas and 186277-243-T-J2-PDC and 233499-124-R-J2-PDC colon carcinomas were obtained from the NCI Patient-Derived Models Repository (PDMR, https://pdmr.cancer.gov). The established cell lines NCI/ADR-RES (RRID:CVCL_14520 and OVCAR-5 (RRID:CVCL_1628) ovarian carcinomas, 786-O (RRID:CVCL_1051) and A498 (RRID:CVCL_A498) renal cell carcinoma, NCI-H211 (ATCC, cat. CRL-5824; RRID:CVCL_1529), NCI-H196 (ATCC, cat. CRL-5823, RRID:CVCL_1509), SW 1271 (ATCC, cat. CRL-2177, RRID:CVCL_1716) and NCI-H1876 (ATCC, cat. CRL-5902, RRID:CVCL_1503) small cell lung carcinomas, MDA-MB-231 (RRID:CVCL_0062) and MDA-MB-468 (RRID:CVCL_0419)breast carcinomas (10-12). Pooled donor human umbilical vein endothelial cells (HUVEC, Lonza, cat. CC-2519) and human mesenchymal stem cells (hMSC, Lonza, cat. PT-2501) were purchased from Lonza (Walkersville, MD).
Cell Culture. All cells were maintained in an incubator at 37 degrees C and 5% CO2 with 95% humidity. The PDC lines were cultured according to standard operating procedures established by the NCI PDMR (https://pdmr.cancer.gov). Briefly all PDCs were thawed and cultured in Matrigel-coated flasks prepared with a working solution of 1X Ham's F-12 nutrient mix, without supplementation (Invitrogen, Waltham, MA, cat. 11765054), 100 U/mL penicillin-streptomycin (Invitrogen, cat. 15140122), and 2.5% Matrigel (Corning Inc., Corning, NY, cat. 354248) for the first three passages. […]

[1] = second compound 0.1 µM, first compound 0.000949 µM
[2] = second compound 0.1 µM, first compound 0.003 µM
[3] = second compound 0.1 µM, first compound 0.00949 µM
[4] = second compound 0.1 µM, first compound 0.03 µM
[5] = second compound 0.1 µM, first compound 0.0949 µM
[6] = second compound 0.1 µM, first compound 0.3 µM
[7] = second compound 0.316 µM, first compound 0.000949 µM
[8] = second compound 0.316 µM, first compound 0.003 µM
[9] = second compound 0.316 µM, first compound 0.00949 µM
[10] = second compound 0.316 µM, first compound 0.03 µM
[11] = second compound 0.316 µM, first compound 0.0949 µM
[12] = second compound 0.316 µM, first compound 0.3 µM
[13] = second compound 1 µM, first compound 0.000949 µM
[14] = second compound 1 µM, first compound 0.003 µM
[15] = second compound 1 µM, first compound 0.00949 µM
[16] = second compound 1 µM, first compound 0.03 µM
[17] = second compound 1 µM, first compound 0.0949 µM
[18] = second compound 1 µM, first compound 0.3 µM
[19] = second compound 3.16 µM, first compound 0.000949 µM
[20] = second compound 3.16 µM, first compound 0.003 µM
[21] = second compound 3.16 µM, first compound 0.00949 µM
[22] = second compound 3.16 µM, first compound 0.03 µM
[23] = second compound 3.16 µM, first compound 0.0949 µM
[24] = second compound 3.16 µM, first compound 0.3 µM
[25] = second compound 10 µM, first compound 0.000949 µM
[26] = second compound 10 µM, first compound 0.003 µM
[27] = second compound 10 µM, first compound 0.00949 µM
[28] = second compound 10 µM, first compound 0.03 µM
[29] = second compound 10 µM, first compound 0.0949 µM
[30] = second compound 10 µM, first compound 0.3 µM

Structure (SMILES): CCc1c2c(nc3ccc(O)cc13)-c1cc3c(c(=O)n1C2)COC(=O)[C@]3(O)CC + NC1CC1c1ccc(-c2cccc(O)c2)cc1
- IC50 (second compound 0.1 µM): < 0.949 nM
- IC50 (second compound 0.316 µM): < 0.949 nM
- IC50 (second compound 1 µM): < 0.949 nM
- IC50 (second compound 3.16 µM): < 0.949 nM
- IC50 (second compound 10 µM): < 0.949 nM
- viability, T/C [1]: 3.8%
- viability, T/C [2]: 1.6%
- viability, T/C [3]: 0.64%
- viability, T/C [4]: 0.32%
- viability, T/C [5]: 0.23%
- viability, T/C [6]: 0.59%
- viability, T/C [7]: 3.44%
- viability, T/C [8]: 1.85%
- viability, T/C [9]: 0.73%
- viability, T/C [10]: 0.21%
- viability, T/C [11]: 0.3%
- viability, T/C [12]: 0.38%
- viability, T/C [13]: 4.73%
- viability, T/C [14]: 3.11%
- viability, T/C [15]: 0.96%
- viability, T/C [16]: 0.37%
- viability, T/C [17]: 0.24%
- viability, T/C [18]: 0.51%
- viability, T/C [19]: 8.34%
- viability, T/C [20]: 2.9%
- viability, T/C [21]: 1.29%
- viability, T/C [22]: 0.29%
- viability, T/C [23]: 0.18%
- viability, T/C [24]: 0.31%
- viability, T/C [25]: 20.9%
- viability, T/C [26]: 3.67%
- viability, T/C [27]: 1.58%
- viability, T/C [28]: 0.59%
- viability, T/C [29]: 0.26%
- viability, T/C [30]: 0.3%

Structure (SMILES): Nc1ccn(C2OC(CO)C(O)C2(F)F)c(=O)n1 (stereo not given) + NC1CC1c1ccc(-c2cccc(O)c2)cc1
- IC50 (second compound 0.1 µM): < 0.949 nM
- IC50 (second compound 0.316 µM): < 0.949 nM
- IC50 (second compound 1 µM): < 0.949 nM
- IC50 (second compound 3.16 µM): < 0.949 nM
- IC50 (second compound 10 µM): < 0.949 nM
- viability, T/C [1]: 2.63%
- viability, T/C [2]: 2.71%
- viability, T/C [3]: 2.9%
- viability, T/C [4]: 2.13%
- viability, T/C [5]: 1.39%
- viability, T/C [6]: 0.69%
- viability, T/C [7]: 2.24%
- viability, T/C [8]: 2.81%
- viability, T/C [9]: 2.22%
- viability, T/C [10]: 1.81%
- viability, T/C [11]: 1.11%
- viability, T/C [12]: 0.86%
- viability, T/C [13]: 2.39%
- viability, T/C [14]: 2.3%
- viability, T/C [15]: 2.24%
- viability, T/C [16]: 2.16%
- viability, T/C [17]: 1.32%
- viability, T/C [18]: 0.73%
- viability, T/C [19]: 2.52%
- viability, T/C [20]: 2.29%
- viability, T/C [21]: 2.22%
- viability, T/C [22]: 2.18%
- viability, T/C [23]: 1.17%
- viability, T/C [24]: 0.8%
- viability, T/C [25]: 2.57%
- viability, T/C [26]: 2.57%
- viability, T/C [27]: 3.02%
- viability, T/C [28]: 2.33%
- viability, T/C [29]: 1.52%
- viability, T/C [30]: 1%

Structure (SMILES): O=C(c1cc(Cc2n[nH]c(=O)c3ccccc23)ccc1F)N1CCN(C(=O)C2CC2)CC1 + NC1CC1c1ccc(-c2cccc(O)c2)cc1
- IC50 (second compound 0.1 µM): > 10000 nM
- IC50 (second compound 0.316 µM): > 10000 nM
- IC50 (second compound 1 µM): > 10000 nM
- IC50 (second compound 3.16 µM): > 10000 nM
- IC50 (second compound 10 µM): > 10000 nM
- viability, T/C (second compound 0.1 µM, first compound 0.0316 µM): 112%
- viability, T/C (second compound 0.1 µM, first compound 0.1 µM): 108%
- viability, T/C (second compound 0.1 µM, first compound 0.316 µM): 107%
- viability, T/C (second compound 0.1 µM, first compound 1 µM): 105%
- viability, T/C (second compound 0.1 µM, first compound 3.16 µM): 99.5%
- viability, T/C (second compound 0.1 µM, first compound 10 µM): 91.8%
- viability, T/C (second compound 0.316 µM, first compound 0.0316 µM): 111%
- viability, T/C (second compound 0.316 µM, first compound 0.1 µM): 115%
- viability, T/C (second compound 0.316 µM, first compound 0.316 µM): 108%
- viability, T/C (second compound 0.316 µM, first compound 1 µM): 103%
- viability, T/C (second compound 0.316 µM, first compound 3.16 µM): 106%
- viability, T/C (second compound 0.316 µM, first compound 10 µM): 95%
- viability, T/C (second compound 1 µM, first compound 0.0316 µM): 106%
- viability, T/C (second compound 1 µM, first compound 0.1 µM): 106%
- viability, T/C (second compound 1 µM, first compound 0.316 µM): 103%
- viability, T/C (second compound 1 µM, first compound 1 µM): 104%
- viability, T/C (second compound 1 µM, first compound 3.16 µM): 99.4%
- viability, T/C (second compound 1 µM, first compound 10 µM): 80.1%
- viability, T/C (second compound 3.16 µM, first compound 0.0316 µM): 110%
- viability, T/C (second compound 3.16 µM, first compound 0.1 µM): 111%
- viability, T/C (second compound 3.16 µM, first compound 0.316 µM): 103%
- viability, T/C (second compound 3.16 µM, first compound 1 µM): 97.3%
- viability, T/C (second compound 3.16 µM, first compound 3.16 µM): 96.7%
- viability, T/C (second compound 3.16 µM, first compound 10 µM): 88.6%
- viability, T/C (second compound 10 µM, first compound 0.0316 µM): 91.8%
- viability, T/C (second compound 10 µM, first compound 0.1 µM): 95.3%
- viability, T/C (second compound 10 µM, first compound 0.316 µM): 96.4%
- viability, T/C (second compound 10 µM, first compound 1 µM): 94.4%
- viability, T/C (second compound 10 µM, first compound 3.16 µM): 88.7%
- viability, T/C (second compound 10 µM, first compound 10 µM): 74.5%
